Values after ≈ are worked out from the molar mass of the structure shown. Where a SMILES comes first, the peptide text is derived from it. [ ]: non-standard residue; d: D form.
Columns and labels:
C57BL/6NCrl mice = assay: In vivo acute toxicity, intratracheal; parameters: species or system mouse
Method: In vivo acute toxicity of D-BMAP18 was evaluated in C57BL/6NCrl mice (n = 5/group) (male; 22 g; 6 ± 2 week-old) obtained from Charles River Laboratories Italia S.r.l. (Calco, Milan, Italy). Mice were intra-tracheally challenged with increasing doses (1, 2, 4, and 8 mg/kg) of D-BMAP18 prepared in sterile distilled water. Control mice received vehicle only (sterile distilled water). General health and animal behavior (ruffled coats, huddled position, lack of retreat in handler's presence), weight loss, and survival were monitored daily over a 5-day period, comparatively to control mice. […] Subsequently, lungs were removed en bloc from the chest via sterile excision and immediately weighed. These experiments were carried out in accordance with the recommendations of the Guide for the Care and Use of Laboratory Animals of the National Institute of Health and in accordance with the ethical standards of the Animal Care Committee of the “G. d'Annunzio” University of Chieti-Pescara. The protocol was approved by the Animal Care Committee of the “G. d'Annunzio” University of Chieti-Pescara.

S. aureus SA2 = conditions: D-BMAP18; strain SA2; broth microdilution, MH broth, 37°C 24 h; n = 6
Method: (§2) MIC values were determined using the broth microdilution method. Briefly, serial 2-fold dilutions of each peptide were prepared in Mueller-Hinton broth (MH; Difco) and aliquoted in round-bottom 96 well microtiter plates (Sarstedt). Each well was inoculated with a standardized inoculum to achieve a final test concentration of about 5 × 10^5 CFU/ml. […] To calculate the MBC, following the 24 h-incubation of the MIC assay, 25 μl of broth from clear wells were plated on MH agar plates, and incubated at 37°C for 24 h. MBC was defined as the lowest concentration of the peptide killing at least 99.9% of the original inoculum.

P. aeruginosa = assay type: cell-based, Pseudomonas aeruginosa; conditions: 24 h
Method: P. aeruginosa, S. maltophilia, and Staphylococcus aureus strains were originally isolated from respiratory specimens of CF patients admitted to the “Bambino Gesù” Children Hospital in Rome and previously tested with AMPs (Pompilio et al., [2012]). P. aeruginosa RP73, and PAO1 were tested as reference strains.
(§1) MIC values were determined using the broth microdilution method.

P. aeruginosa PA14 = assay: MIC/MBC broth microdilution; assay type: cell-based, Pseudomonas aeruginosa; conditions: D-BMAP18, strain PA14, n = 6
Method: as §1

P. aeruginosa RP73 = assay: MIC/MBC broth microdilution; assay type: cell-based, Pseudomonas aeruginosa; conditions: D-BMAP18, strain RP73, n = 6
Method: as §1

P. aeruginosa PA03 = assay: MIC/MBC broth microdilution; assay type: cell-based, Pseudomonas aeruginosa; conditions: D-BMAP18, strain PA03, n = 6
Method: as §1

P. aeruginosa PA22 = assay: MIC/MBC broth microdilution; assay type: cell-based, Pseudomonas aeruginosa; conditions: D-BMAP18, strain PA22, n = 6
Method: as §1

S. aureus SA1 = conditions: D-BMAP18; strain SA1; broth microdilution, MH broth, 37°C 24 h; n = 6
Method: as §2

S. aureus SA5 = assay: MIC broth microdilution; assay type: cell-based, Staphylococcus aureus; conditions: D-BMAP18, strain SA5, MH broth, 37°C 24 h, n = 6
Method: as §1

S. aureus SA7 = assay: MIC broth microdilution; assay type: cell-based, Staphylococcus aureus; conditions: D-BMAP18, strain SA7, MH broth, 37°C 24 h, n = 6
Method: as §1

S. aureus SA4 = assay: MIC broth microdilution; assay type: cell-based, Staphylococcus aureus; conditions: D-BMAP18, strain SA4, MH broth, 37°C 24 h, n = 6
Method: as §1

S. aureus SA3 = assay: MIC broth microdilution; assay type: cell-based, Staphylococcus aureus; conditions: D-BMAP18, strain SA3, MH broth, 37°C 24 h, n = 6
Method: as §1

[1] = broth microdilution, MH broth, 37°C 24 h
[2] = kills at least 99.9% of inoculum

## CC(C)C[C@@H](NC(=O)[C@@H](CCCCN)NC(=O)[C@@H](CCCCN)NC(=O)[C@@H](Cc1ccccc1)NC(=O)[C@@H](CC(C)C)NC(=O)[C@@H](CCCCN)NC(=O)[C@@H](CCCCN)NC(=O)[C@@H](Cc1ccccc1)NC(=O)[C@@H](CCCCN)NC(=O)[C@@H](CCCCN)NC(=O)[C@@H](CCCNC(=N)N)NC(=O)[C@@H](Cc1ccccc1)NC(=O)[C@@H](CCCNC(=N)N)NC(=O)[C@@H](CCCCN)NC(=O)[C@@H](Cc1ccccc1)NC(=O)[C@@H](CCCNC(=N)N)NC(=O)CN)C(=O)N[C@H](CO)C(N)=O [D-BMAP18] (H-G[dR][dF][dK][dR][dF][dR][dK][dK][dF][dK][dK][dL][dF][dK][dK][dL][dS]-NH2)
C57BL/6NCrl mice; 1 mg/kg single intratracheal instillation, day 5 p.e., n = 5/group
  macroscopic lung pathology (four-point score): No pulmonary damage
C57BL/6NCrl mice; 2 mg/kg single intratracheal instillation, day 5 p.e., n = 5/group, p < 0.05 vs control
  macroscopic lung pathology, median score (four-point scoring): 2.5
C57BL/6NCrl mice; 8 mg/kg single intratracheal instillation, day 5 p.e., n = 5/group, p < 0.01 vs control
  macroscopic lung pathology, median score (four-point scoring): 3
C57BL/6NCrl mice; 1, 2, 4, 8 mg/kg intratracheal, first 2 days p.e., regardless of dose, vs unexposed control
  change in body weight, first 2 days: significant (p<0.01) decrease
C57BL/6NCrl mice; 1-8 mg/kg intratracheal, over 5 days p.e., also at the lowest dose, dose-dependent
  change in body weight: significant reduction in body weight
S. aureus SA2
  MIC: >32 µg/mL
P. aeruginosa
  MIC90: 16 µg/mL (≈ 6.83 µM)
P. aeruginosa PA14; [1]
  MIC: 16 µg/mL (≈ 6.83 µM)
P. aeruginosa PA14; [2]
  MBC: 32 µg/mL (≈ 13.7 µM)
P. aeruginosa RP73; [1]
  MIC: 4 µg/mL (≈ 1.71 µM)
P. aeruginosa RP73; [2]
  MBC: 8 µg/mL (≈ 3.42 µM)
P. aeruginosa PA03; [1]
  MIC: 8 µg/mL (≈ 3.42 µM)
P. aeruginosa PA03; [2]
  MBC: 8 µg/mL (≈ 3.42 µM)
P. aeruginosa PA22; [1]
  MIC: 4 µg/mL (≈ 1.71 µM)
P. aeruginosa PA22; [2]
  MBC: 32 µg/mL (≈ 13.7 µM)
S. aureus SA1
  MIC: >32 µg/mL
S. aureus SA5
  MIC: >32 µg/mL
S. aureus SA7
  MIC: >32 µg/mL
S. aureus SA4
  MIC: >32 µg/mL
S. aureus SA3
  MIC: >32 µg/mL
